# No end group written: not given here.
# Experiments:
# corolase = assay: Compatibility of surfactants with enzymes: remaining enzyme activity; type: biochemical; conditions: 1% SDS, within 15 minutes
# Experimental: (§1) In selection of suitable surfactants, one must make sure that they are compatible with the enzymes used. It is preferable that the enzyme activity not decrease more than 50%, particularly not more than 30%, during a typical average working time of 15 minutes. Thus, tests have shown that sodium dodecyl sulfate (SDS), which is known to be a denaturant, reduces the activity of corolase to less than 30% within 15 minutes, even at a concentration of 1%, while the activity of xylanase decreases to less than 40% with only 0.1% SDS, so that surfactant is not preferred for use in the cleaning agents according to the invention. If that surfactant, or one with similar action, must nevertheless be used, one should preferably make sure of spatial separation during storage, such as by encapsulating the enzyme or by use of a multichamber bottle so that the enzyme and surfactant come into contact with each other only immediately before or during use. Alkyl polyglycosides, on the other hand, are well suited for use in enzyme-containing agents according to this invention. For instance, the activity of corolase remains clearly over 50% even with 3% APG 600, while xylanase actually experiences an increase in activity from the use of APG 600 (more than 150% activity with 0.1% surfactant) and still has more than 80% activity with 3% APG.
# xylanase = assay: as above; type: biochemical; conditions: 0.1% SDS
# Experimental: as §1
# bacillus lichenformis = assay: Inhibition of skin microorganisms by human β-defensin 2: CFU count, reduction factor vs control; type: cell-based; conditions: B. lichenformis; for inhibition of the microorganism (in words): useful skin microorganism; for logarithmic decrease in the cell number (RF): 35.7 μg/ml, compared with the control
# Experimental: (§2) Staphylococcus epidermidis and bacillus lichenformis were grown in LB medium under aerobic conditions at 37° C. Propionibacterium acnes was grown in TBST medium under anaerobic conditions at 37° C. The concentration of human β-defensin 2 was 35.7 μg/ml. Procedure: 18-hour cultures (S. epidermidis and B. lichenformis) or 5-day cultures (P. acnes) in LB or TBST liquid media; Measurement of the cultures at A620 nm; Adjustment in PBS [phosphate-buffered saline] to the proper A620 nm for 10^6 CFU/ml of the test strain; Microbial content checked with a dilution series in MTP brief procedure and plating; Make up stock solution of the ingredient AWK in PBS; Put 10 μl aliquots of the test strain suspension in the PCR tubes provided for AWK and control; Add to each 10 μl aliquots of AWK or PBS; Incubate aerobically at 37° C.; Determine the microbial content of the suspensions after 8 and 24 hours, with a dilution series in the MTP brief procedure and plating; Incubation of the agar plates under proper conditions for the strain; Evaluation, by visual check of the cultured agar plates, 8 or 24 hours after the start of the test; determination of the CFU and calculation of the reduction factors.
# Propionibacterium acnes = assay: as above; type: cell-based; conditions: P. acnes; for inhibition of the microorganism (in words): harmful organism; for logarithmic decrease in the cell number (RF): 35.7 μg/ml, compared with the control
# Experimental: as §2
# [1] = tested on: Staphylococcus epidermidis; assay: as above; type: cell-based; conditions: S. epidermidis; for inhibition of the microorganism (in words): useful skin microorganism; for logarithmic decrease in the cell number (RF): 35.7 μg/ml, compared with the control
# Experimental: as §2
activity of corolase (corolase),activity of xylanase (xylanase),Compound,inhibition of the microorganism (in words) (bacillus lichenformis; listed as human β-defensin 2),inhibition of the microorganism (in words) (bacillus lichenformis; listed as β-defensin 2),logarithmic decrease in the cell number (RF) (bacillus lichenformis; exposure time 8 hr),logarithmic decrease in the cell number (RF) (bacillus lichenformis; exposure time 24 hr),inhibition of the microorganism (in words) (Propionibacterium acnes; listed as human β-defensin 2),inhibition of the microorganism (in words) (Propionibacterium acnes; listed as β-defensin 2),logarithmic decrease in the cell number (RF) (Propionibacterium acnes; exposure time 8 hr),logarithmic decrease in the cell number (RF) (Propionibacterium acnes; exposure time 24 hr),inhibition of the microorganism (in words) ([1]; listed as human β-defensin 2),inhibition of the microorganism (in words) ([1]; listed as β-defensin 2),logarithmic decrease in the cell number (RF) ([1]; exposure time 8 hr),logarithmic decrease in the cell number (RF) ([1]; exposure time 24 hr)
less than 30%,less than 40%,"CCCCCCCCCCCCOS(=O)(=O)[O-].[Na+] [SDS, sodium dodecyl sulfate]",–,–,–,–,–,–,–,–,–,–,–,–
–,–,human β-defensin 2 (GIGDPVTCLKSGAICHPVFCPRRYKQIGGCGLPGTKCCKKP; ends and bridges not checked; cysteine pairing not given here) [used as hBD2 (Sigma) in the formulations],only slight inhibition,only a slight inhibitory effect,0.09275,0.3716,good inhibition,distinctly more strongly inhibited,0.9586,1.833,only slight inhibition,only a slight inhibitory effect,0.1963,0.09922
